Organism: Rattus norvegicus
Experiment: DrugMatrix - Regimen: Daily Repeat
Assay type: toxicity, organism-based, Sprague-Dawley
Parameters: regimen Daily Repeat, gender Male, age 6-8 weeks
Conditions: in vivo, sc, route subcutaneous, […]; for ABSOLUTE BASOPHIL / ABSOLUTE EOSINOPHIL / ABSOLUTE LYMPHOCYTE / ABSOLUTE MONOCYTE / ABSOLUTE SEGMENTED NEUTROPHIL / BASOPHIL / EOSINOPHIL / ERYTHROCYTE COUNT / HEMATOCRIT / HEMOGLOBIN / LEUKOCYTE COUNT / LYMPHOCYTE / MEAN CORPUSCULAR HEMOGLOBIN / MEAN CORPUSCULAR VOLUME / MONOCYTE / NEUTROPHIL / NUCLEATED RED BLOOD CELLS / PLATELET COUNT: tissue Blood; for ALANINE AMINOTRANSFERASE / ALBUMIN / ALKALINE PHOSPHATASE / ASPARTATE AMINOTRANSFERASE / BLOOD UREA NITROGEN / CARBON DIOXIDE / CHLORIDE / CHOLESTEROL / CREATINE PHOSPHOKINASE / CREATININE / GLUCOSE / LACTATE DEHYDROGENASE / LIPASE / PHOSPHORUS / POTASSIUM / SODIUM / TOTAL BILIRUBIN / TOTAL PROTEIN / URIC ACID: tissue Plasma
[1] = 50 mg/kg, 120 h, dose level Low, time 5 day
[2] = 450 mg/kg, 72 h, dose level M2, time 3 day
[3] = 450 mg/kg, 120 h, dose level M2, time 5 day

Compound: CCCCCCCCc1ccc(O)cc1 [4-OCTYLPHENOL]
- ABSOLUTE BASOPHIL [1]: 0 CELLS/uL
- ABSOLUTE EOSINOPHIL [1]: 65.33 CELLS/uL
- ABSOLUTE LYMPHOCYTE [1]: 9619.33 CELLS/uL
- ABSOLUTE MONOCYTE [1]: 226 CELLS/uL
- ABSOLUTE SEGMENTED NEUTROPHIL [1]: 589.33 CELLS/uL
- BASOPHIL [1]: 0%
- EOSINOPHIL [1]: 0.67%
- ERYTHROCYTE COUNT [1]: 5.5 x10E6/uL
- HEMATOCRIT [1]: 35.3%
- HEMOGLOBIN [1]: 13.8 G/DL
- LEUKOCYTE COUNT [1]: 10.5 x10E3/uL
- LYMPHOCYTE [1]: 91.33%
- MEAN CORPUSCULAR HEMOGLOBIN [1]: 25.17 pg
- MEAN CORPUSCULAR VOLUME [1]: 64.33 fL
- MONOCYTE [1]: 2.33%
- NEUTROPHIL [1]: 5.67%
- NUCLEATED RED BLOOD CELLS [1]: 0 /100WBC
- PLATELET COUNT [1]: 1190 x10E3/uL
- ALANINE AMINOTRANSFERASE [1]: 45.33 u/L
- ALBUMIN [1]: 3.2 G/DL
- ALKALINE PHOSPHATASE [1]: 276.67 u/L
- ASPARTATE AMINOTRANSFERASE [1]: 80 u/L
- BLOOD UREA NITROGEN [1]: 15 mg/dL
- CARBON DIOXIDE [1]: 29.67 mmol/L
- CHLORIDE [1]: 100 MEQ/L
- CHOLESTEROL [1]: 78 mg/dL
- CREATINE PHOSPHOKINASE [1]: 339.67 u/L
- CREATININE [1]: 0.16 mg/dL
- GLUCOSE [1]: 161.33 mg/dL
- LACTATE DEHYDROGENASE [1]: 367 u/L
- LIPASE [1]: 9 u/L
- PHOSPHORUS [1]: 12.2 mg/dL
- POTASSIUM [1]: 6.42 MEQ/L
- SODIUM [1]: 141.23 MEQ/L
- TOTAL BILIRUBIN [1]: 0.1 mg/dL
- TOTAL PROTEIN [1]: 5.57 G/DL
- URIC ACID [1]: 1.5 mg/dL
- ABSOLUTE BASOPHIL [2]: 0 CELLS/uL
- ABSOLUTE EOSINOPHIL [2]: 58 CELLS/uL
- ABSOLUTE LYMPHOCYTE [2]: 8257.67 CELLS/uL
- ABSOLUTE MONOCYTE [2]: 28.33 CELLS/uL
- ABSOLUTE SEGMENTED NEUTROPHIL [2]: 256 CELLS/uL
- BASOPHIL [2]: 0%
- EOSINOPHIL [2]: 0.67%
- ERYTHROCYTE COUNT [2]: 5.23 x10E6/uL
- HEMATOCRIT [2]: 32.2%
- HEMOGLOBIN [2]: 12.73 G/DL
- LEUKOCYTE COUNT [2]: 8.6 x10E3/uL
- LYMPHOCYTE [2]: 96%
- MEAN CORPUSCULAR HEMOGLOBIN [2]: 24.37 pg
- MEAN CORPUSCULAR VOLUME [2]: 61.63 fL
- MONOCYTE [2]: 0.33%
- NEUTROPHIL [2]: 3%
- NUCLEATED RED BLOOD CELLS [2]: 0 /100WBC
- PLATELET COUNT [2]: 1100 x10E3/uL
- ALANINE AMINOTRANSFERASE [2]: 61 u/L
- ALBUMIN [2]: 3.07 G/DL
- ALKALINE PHOSPHATASE [2]: 305.67 u/L
- ASPARTATE AMINOTRANSFERASE [2]: 93.67 u/L
- BLOOD UREA NITROGEN [2]: 9.67 mg/dL
- CARBON DIOXIDE [2]: 24 mmol/L
- CHLORIDE [2]: 94 MEQ/L
- CHOLESTEROL [2]: 75.33 mg/dL
- CREATINE PHOSPHOKINASE [2]: 340.33 u/L
- CREATININE [2]: 0.3 mg/dL
- GLUCOSE [2]: 117.67 mg/dL
- LACTATE DEHYDROGENASE [2]: 409.67 u/L
- LIPASE [2]: 9 u/L
- PHOSPHORUS [2]: 10.37 mg/dL
- POTASSIUM [2]: 5.55 MEQ/L
- SODIUM [2]: 137.75 MEQ/L
- TOTAL BILIRUBIN [2]: 0.1 mg/dL
- TOTAL PROTEIN [2]: 5.1 G/DL
- URIC ACID [2]: 0.63 mg/dL
- ABSOLUTE BASOPHIL [3]: 0 CELLS/uL
- ABSOLUTE EOSINOPHIL [3]: 224.33 CELLS/uL
- ABSOLUTE LYMPHOCYTE [3]: 13520.67 CELLS/uL
- ABSOLUTE MONOCYTE [3]: 303.33 CELLS/uL
- ABSOLUTE SEGMENTED NEUTROPHIL [3]: 3318.33 CELLS/uL
- BASOPHIL [3]: 0%
- EOSINOPHIL [3]: 1.33%
- ERYTHROCYTE COUNT [3]: 5.94 x10E6/uL
- HEMATOCRIT [3]: 36.27%
- HEMOGLOBIN [3]: 14.17 G/DL
- LEUKOCYTE COUNT [3]: 17.37 x10E3/uL
- LYMPHOCYTE [3]: 78%
- MEAN CORPUSCULAR HEMOGLOBIN [3]: 23.97 pg
- MEAN CORPUSCULAR VOLUME [3]: 61.27 fL
- MONOCYTE [3]: 1.67%
- NEUTROPHIL [3]: 19%
- NUCLEATED RED BLOOD CELLS [3]: 0 /100WBC
- PLATELET COUNT [3]: 1864.67 x10E3/uL
- ALANINE AMINOTRANSFERASE [3]: 43.33 u/L
- ALBUMIN [3]: 3.17 G/DL
- ALKALINE PHOSPHATASE [3]: 326.67 u/L
- ASPARTATE AMINOTRANSFERASE [3]: 82.67 u/L
- BLOOD UREA NITROGEN [3]: 14 mg/dL
- CARBON DIOXIDE [3]: 25.33 mmol/L
- CHLORIDE [3]: 102.67 MEQ/L
- CHOLESTEROL [3]: 71.67 mg/dL
- CREATINE PHOSPHOKINASE [3]: 343 u/L
- CREATININE [3]: 0.19 mg/dL
- GLUCOSE [3]: 162.33 mg/dL
- LACTATE DEHYDROGENASE [3]: 384.67 u/L
- LIPASE [3]: 9.67 u/L
- PHOSPHORUS [3]: 12.93 mg/dL
- POTASSIUM [3]: 7.17 MEQ/L
- SODIUM [3]: 141.23 MEQ/L
- TOTAL BILIRUBIN [3]: 0.13 mg/dL
- TOTAL PROTEIN [3]: 5.4 G/DL
- URIC ACID [3]: 2.67 mg/dL
